How the values were obtained:
[1] = Inhibition of ENO1 in overexpressed human D423 cells incubated for 5 days in presence of 1 % oxygen by crystal violet staining based spectrophotometry
[2] = Inhibition of ENO1 in overexpressed human D423 cells incubated for 5 days in presence of 21 % oxygen by crystal violet staining based spectrophotometry
[3] = Inhibition of ENO1 in wild-type human LN319 cells incubated for 5 days in presence of 21 % oxygen by crystal violet staining based spectrophotometry
[4] = Inhibition of ENO1 in wild-type human LN319 cells incubated for 5 days by crystal violet staining based spectrophotometry
[5] = Inhibition of ENO1 in overexpressed human D423 cells incubated for 5 days by crystal violet staining based spectrophotometry
[6] = Inhibition of ENO1 in wild-type human LN319 cells incubated for 5 days in presence of 1 % oxygen by crystal violet staining based spectrophotometry

SMILES	IC50 [1]	IC50 [2]	IC50 [3]	IC50 [4]	IC50 [5]	IC50 [6]
CC(=O)ON1CCCC(P(=O)(NCc2ccccc2)OCc2ccc([N+](=O)[O-])o2)C1=O (configuration not stated)	5760 nM	25900 nM	21100 nM	–	–	–
CC(C)(C)C(=O)OCOP(=O)(NCc1ccccc1)C1CCCN(O)C1=O (configuration not stated)	–	–	–	4020 nM	3940 nM	–
CC(C)(C)C(=O)OCOP(=O)(OCOC(=O)C(C)(C)C)C1CCCN(O)C1=O (configuration not stated)	2810 nM	720 nM	2410 nM	2150 nM	604 nM	1810 nM
Cn1c(COP(=O)(NCCBr)NCCBr)cnc1[N+](=O)[O-] [Evofosfamide]	301 nM	2550 nM	4840 nM	–	–	897 nM
O=C1C(P(=O)(O)O)CCCN1O (configuration not stated)	–	–	–	> 100000 nM	> 100000 nM	–
